The values that follow come from patent publication US7217702B2, “Selective antagonists of A2A adenosine receptors” (Adenosine Therapeutics, LLC, priority 2004, dated 2007).

SMILES strings stand for the structures.

One series concerns the target T1, A1AR (Homo sapiens, UniProt P30542).
T1 sequence (P30542 1-326): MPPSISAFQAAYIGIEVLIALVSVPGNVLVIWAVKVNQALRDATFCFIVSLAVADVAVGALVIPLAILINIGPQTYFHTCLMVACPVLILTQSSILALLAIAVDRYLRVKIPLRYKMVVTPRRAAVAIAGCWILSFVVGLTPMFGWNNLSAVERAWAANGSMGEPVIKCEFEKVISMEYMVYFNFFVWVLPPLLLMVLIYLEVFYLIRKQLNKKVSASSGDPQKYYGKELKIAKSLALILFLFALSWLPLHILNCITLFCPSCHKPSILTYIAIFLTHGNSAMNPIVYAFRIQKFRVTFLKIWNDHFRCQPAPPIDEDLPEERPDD
Put plainly: Binding affinity of A2AAR ligands, radioligand displacement at A1AR. As to conditions: for selectivity ratio vs. the A2AAR, A1AR: number in parentheses.

Another series concerns the target A2AAR (Homo sapiens, UniProt P29274). In words: Binding affinity of A2AAR ligands, radioligand displacement at A2AAR. For orientation: In a radioligand displacement assay an active substance lowers the binding of a labelled ligand.
The target in a further series is T2, A2BAR (Homo sapiens, UniProt P29275).
T2 sequence (P29275 1-332): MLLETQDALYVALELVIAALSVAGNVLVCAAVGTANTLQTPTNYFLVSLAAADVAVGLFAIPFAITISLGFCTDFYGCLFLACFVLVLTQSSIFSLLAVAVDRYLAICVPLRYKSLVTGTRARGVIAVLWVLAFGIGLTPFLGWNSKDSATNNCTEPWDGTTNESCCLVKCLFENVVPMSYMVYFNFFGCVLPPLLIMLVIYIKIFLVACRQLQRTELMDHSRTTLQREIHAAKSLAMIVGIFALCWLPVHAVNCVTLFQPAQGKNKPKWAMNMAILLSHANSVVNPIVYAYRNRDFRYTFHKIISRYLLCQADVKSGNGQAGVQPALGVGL
Put plainly: Binding affinity of A2AAR ligands, radioligand displacement at A2BAR. Conditions: for displacement of radioligand, A2BAR: 1 μM candidate ligand; for selectivity ratio vs. the A2AAR, A2BAR: number in parentheses.

A further series has as its target T3, A3AR (Homo sapiens, UniProt P0DMS8).
T3 sequence (P0DMS8 1-318): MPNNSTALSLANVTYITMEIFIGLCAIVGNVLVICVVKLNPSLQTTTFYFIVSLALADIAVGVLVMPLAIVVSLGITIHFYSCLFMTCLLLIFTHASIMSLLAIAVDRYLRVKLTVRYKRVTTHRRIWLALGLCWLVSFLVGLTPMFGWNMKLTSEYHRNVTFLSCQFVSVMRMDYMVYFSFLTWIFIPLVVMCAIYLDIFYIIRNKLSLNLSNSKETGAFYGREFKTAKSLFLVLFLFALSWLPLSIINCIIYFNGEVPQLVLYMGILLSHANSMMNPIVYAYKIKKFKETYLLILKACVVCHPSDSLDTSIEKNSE
In words: Binding affinity of A2AAR ligands, radioligand displacement at A3AR. Conditions: for displacement of radioligand, A3AR: 1 μM candidate ligand; for selectivity ratio vs. the A2AAR, A3AR: number in parentheses.

In another series the target is A2A adenosine receptor (Homo sapiens, UniProt P29274). Put plainly: Human Ki of the compound tables. Conditions: receptor subtype not given. The class given is binding.
Sequence of A2A adenosine receptor (P29274 whole entry): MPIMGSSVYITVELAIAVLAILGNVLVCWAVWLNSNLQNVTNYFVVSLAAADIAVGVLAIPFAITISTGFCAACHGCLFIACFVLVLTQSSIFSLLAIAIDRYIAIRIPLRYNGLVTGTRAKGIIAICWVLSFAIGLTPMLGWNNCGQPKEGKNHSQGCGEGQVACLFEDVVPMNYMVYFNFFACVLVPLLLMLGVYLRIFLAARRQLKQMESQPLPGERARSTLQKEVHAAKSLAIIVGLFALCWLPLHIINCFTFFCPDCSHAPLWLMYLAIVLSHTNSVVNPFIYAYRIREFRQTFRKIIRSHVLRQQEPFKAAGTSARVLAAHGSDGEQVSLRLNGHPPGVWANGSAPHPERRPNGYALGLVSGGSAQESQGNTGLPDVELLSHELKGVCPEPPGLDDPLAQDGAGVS
The conditions of series [1]: in vivo; cited from earlier work.
The subject of the next series is rats. Conditions: cited from earlier work.
The test system of another series is PD patients. Conditions: 20–80 mg/day; cited from earlier work.
In the next series the test system is C57BL/6 mice. Put plainly: Motor stimulation in normal mice, locomotor activity cage system. The class given is in vivo, mouse. On the procedure:
The ability of compounds to stimulate motor activity in normal mice was measured using a simple, computer-assisted locomotor activity cage system. C57BL/6 mice (n═6–8 purchased from the Jackson's lab) were habituated for the testing environment for 120 minute prior to drug treatment. The test compounds were dissolved in vehicle (10% DMSO, 10% castrol oil EL-620 and 80% saline). The drug was administrated intraperitoneally at a dose of 15 mg/kg, and locomotor activity was recorded for 2 hours before and after drug administration.

For series [2], the system named is A2A receptor KO and WT mice. In words: Motor stimulant effect in A2A receptor KO mice and WT littermates. Conditions: 15 mg/kg, FIG. 2. Type of series: in vivo, mouse. On the procedure: We validated that ATL-2 acts on the A2A receptor to stimulate motor activity by using A2AR KO mice (in both mixed (129sv X C57BL/6) as well as congenic (C57BL/6 genetic background) developed over the last several years. We evaluated the motor stimulant effect of ATL-2 in A2A receptor KO and their WT littermates. WT and A2A KO mice (n=4) were habituated for 60 minutes and treated with ATL-2 (15 mg/kg) and recorded for motor activity for 120 minutes.

Series [3] has as its system normal and dopamine-depleted mice. Put plainly: Dose response of motor activity in normal and MPTP dopamine-depleted mice. Conditions: i.p. Type of series: in vivo, mouse. On the procedure: In the set of experiments, we perform a dose response study of ATL-2 in stimulating motor activity in normal mice, and then we further extend this to dopamine-depleted mice. Adult male mice are habituated for 120 minutes and treated (i.p.) with saline or varying doses of compound, and their locomotor activity recorded for 120 minutes.
In a second set of experiments, we utilize the MPTP treatment paradigm to create animal model of PD by severely depleting dopamine in mice. We use a single MPTP treatment paradigm (40 mg/kg) which has been reproducibly reducing dopamine to 30–40% of normal dopamine contents in striatum in our previous studies.^35,74 Adult male mice (˜[…]) are treated with single dose of MPTP (40 mg/kg). Thirty minutes after the MPTP treatment, mice are injected (i.p.) with vehicle or compounds of the invention at the same doses discussed above. Their motor activity is recorded for 180 minutes.

A further series deals with dopamine-depleted mice. Put plainly: Synergy with L-dopa on locomotor activity in MPTP dopamine-depleted mice. The class given is in vivo, mouse. As to conditions: MPTP-treated mice. On the procedure: We further tested the ability of these compounds to synergistically enhance motor function in conjunction with L-dopa, the standard therapy. Mice are injected (i.p.) with MPTP at a dose (1–2.5 mg/kg) that markedly decreases striatal dopamine levels. […] Locomotor behavior is monitored for 120 min before and after the treatment.

The test system of series [4] is unilateral 6-OHDA-lesioned mice. Put plainly: L-dopa-induced locomotor sensitization in unilateral 6-OHDA-lesioned mice. As to conditions: 3 or 10 mg/kg i.p. before daily L-dopa. The class given is in vivo, mouse. The protocol: The ability of ATL-2 to modify the development of L-dopa-induced locomotor sensitization in hemiparkinsonian mice are tested. C57BL/6 mice (from the Jackson's lab, Bar Harbor, […].) are lesioned with 6-OHDA by unilateral intrastriatal using a standard lesioning protocol. Seven days after the 6-OHDA (or MPP^+) treatment, mice are injected with L-dopa (2.0 mg/kg, daily) for 14 days. Five min prior to each L-dopa treatment, the mice receive intraperitoneal pretreatment with: (1) vehicle, (2) ATL-2 (3 mg/kg) or (3) ATL-2 (10 mg/kg). […] Rotational responses to L-dopa are recorded on the days 1, 3, 5, 7, 10 and 15. Following the behavioral measurement, mice may be sacrificed and their brains sectioned through striatum and substantia nigra. Striatal enkephalin mRNA levels are determined by in situ hybridization histochemistry. Similarly, DAT (^3H-mazindol) binding is measured by receptor autoradiography to ensure successful and equivalent lesions among different experimental groups.

For series [5] the following is noted: cited from earlier work.
The mark [6] stands for this setting: normal C57BL/6 mice, 15 mg/kg intraperitoneally, FIG. 1.

Sequence of A2AAR (P29274 whole entry): as above

What is called Ki is a measure of affinity in units of concentration, obtained from inhibition or displacement. Read a high Ki as a looser hold on the target. With `Nc1nc(C#CC2(O)C3CC4CC(C3)CC2C4)nc2c1ncn2C1CCCC1` (stereo not drawn) [Compound 50], the Ki on A1AR is over 325 nM; on A2AAR, 12 nM; on A2A adenosine receptor, under 100 nM. In addition, the “selectivity ratio vs. the A2AAR, A1AR” value at A1AR is over 27. Moreover, the “displacement of radioligand, A2BAR” value on A2BAR is 40%. At A3AR, the “displacement of radioligand, A3AR” value was found to be 40%.

Consider `Nc1nc(NCCc2ccc(O)cc2)nc2nc(-c3ccco3)nn12` [ZM241385], for which the bioavailability result in series [1] was “poor bioavailability”.

With `CCn1c(=O)c2c(nc(/C=C/c3ccc(OC)c(OC)c3)n2C)n(CC)c1=O` [KW6002], the toxicity result in the series with rats is listed as “long-term toxicity”. Further, in the series on PD patients, the “tolerability in clinical trial” value is reported as “well tolerated”.

With `C#CCn1cnc2c(N)nc(C#CC3(O)C4CC5CC(C4)CC3C5)nc21` (stereo not drawn) [Compound 51], the Ki on A1AR was 25 nM; on A2AAR, 1.6 nM; on A2BAR it was 155 nM; on A3AR it was over 650 nM; at A2A adenosine receptor it was under 100 nM. Further, on A1AR, the “selectivity ratio vs. the A2AAR, A1AR” value turned out to be 16. Further, the “selectivity ratio vs. the A2AAR, A2BAR” value at A2BAR came out at 97. The “selectivity ratio vs. the A2AAR, A3AR” value at A3AR is on record as over 400.

`C[C@@H]1CCC[C@@](O)(C#Cc2nc(N)c3ncn(C4CCCC4)c3n2)C1` [Compound 3, 9-Cyclopentyl-2-{2-[1(S)-hydroxy-3(R)-methyl-1-cyclohexyl]ethyn-1-yl}adenine]: the Ki at A1AR is 368 nM; on A2AAR it was 10 nM; at A2BAR, 357 nM; at A3AR, 633 nM; on A2A adenosine receptor, under 100 nM. In addition, the “selectivity ratio vs. the A2AAR, A1AR” value at A1AR amounted to 37. Also, the “selectivity ratio vs. the A2AAR, A2BAR” value on A2BAR is recorded as 36. Also, the “selectivity ratio vs. the A2AAR, A3AR” value at A3AR was 63.

Regarding `C#CCn1cnc2c(N)nc(C#C[C@]3(O)CCC[C@@H](C)C3)nc21` [Compound 2, 2-{2-[1(S)-Hydroxy-3(R)-methyl-1-cyclohexyl]ethyn-1-yl}-9-propargyladenine], on A1AR, affinity was put at a Ki of 4.6 nM and the “selectivity ratio vs. the A2AAR, A1AR” value is on record as 5. At A2AAR, this molecule displayed a Ki of 0.95 nM. The same molecule gave a Ki on A2BAR of 50 nM. On A3AR, the Ki is 599 nM and the “selectivity ratio vs. the A2AAR, A3AR” value was determined as 630. The molecule further registered a Ki on A2A adenosine receptor of under 100 nM. Also, the “motor stimulant effect compared with other A2AR antagonists such as SCH58261 and KW6002” value in the series with C57BL/6 mice (from previous experience with other A2AR antagonists) is “comparable or stronger”. Further, in the series with C57BL/6 mice (setting [6]), the “duration of motor stimulation” value was “about 60 minutes”, the “motor stimulation (locomotor activity)” value was “strong motor stimulation” and the “time to peak of motor stimulation” value was at most 20 min. The “motor stimulation in A2A receptor KO mice” value in [2] (A2A receptor KO mice) is “absent”. In addition, the “motor activity in WT mice” value in [2] (WT littermates) is on record as “produced motor activity”. In addition, in series [3], the “motor function, dose dependence” value was “Enhances Motor Function in a Dose-dependent Manner”. Moreover, in the series with dopamine-depleted mice, the “shift of the dose-response curve with L-dopa” value is reported as “left-shift”. In addition, the “effect with L-dopa in stimulating locomotor activity” value in the series on dopamine-depleted mice (L-dopa 25 mg/kg + ATL-2 0.3-10 mg/kg) was “synergistic effect”. The “development of L-dopa-induced locomotor sensitization” value in [4] was “delays or prevent the development of locomotor sensitization”.

`Nc1nc2c(cnn2CCc2ccccc2)c2nc(-c3ccco3)nn12` [SCH58261]: the solubility entry in [5] was “very poorly soluble”.

On to `C#CCn1cnc2c(NC(CC)CC)nc(C#C[C@]3(O)CCC[C@@H](C)C3)nc21` [Compound 17, 2-{2-[1(S)-Hydroxy-3(R)-methyl-1-cyclohexyl]ethyn-1-yl}-N6-(3-pentyl)-9-(propargyl)adenine], for which the Ki at A1AR was 11 nM; on A2AAR it was 5 nM; on A2BAR it was 147 nM; on A3AR, 188 nM; at A2A adenosine receptor, under 100 nM. Also, on A1AR, the “selectivity ratio vs. the A2AAR, A1AR” value was found to be 2. The “selectivity ratio vs. the A2AAR, A2BAR” value at A2BAR worked out at 29. Besides, the “selectivity ratio vs. the A2AAR, A3AR” value on A3AR turned out to be 38.

For `CCC(CC)Nc1nc(C#C[C@]2(O)CCC[C@@H](C)C2)nc2c1ncn2C` [Compound 11, 2-{2-[1(S)-Hydroxy-3(R)-methyl-1-cyclohexyl]ethyn-1-yl}-9-methyl-N6-(3-pentyl)adenine], the results for the inhibition constant Ki on A1AR, on A2AAR and at A2A adenosine receptor were 172 nM, 137 nM and under 500 nM, respectively. In addition, the “selectivity ratio vs. the A2AAR, A1AR” value at A1AR was found to be 1.3. The “displacement of radioligand, A2BAR” value at A2BAR is 20%. Moreover, the “displacement of radioligand, A3AR” value on A3AR amounted to 30%.
